Patent US5167948A, “Diagnostic or radiotherapeutic composition comprising a hydrogen containing compound” (priority 1987, dated 1992)

Key:
[1] = Determination of the relaxation of the water protons (relaxation time T1, inversion recovery method); assay type: physicochemical; conditions: for T1: 2 millimolar solution in water, 89.55 MHz, room temp.
Protocol: Determination of the relaxation of the water protons by adding paramagnetic deuterated ferricinium compounds compared to the corresponding non-deuterated compounds. The following compounds are tested:
From the above compounds 2 millimolar solutions in water are prepared. Of these solutions the relaxation time T1 is determined at 89.55 MHz on a JEOL FX-90Q NMR spectrometer using the inversion recovery method (room temp.). In the experiments comprising in addition deuterium oxide, D2 O is added in a quantity of 1.0 mMole to a volume of 100 ml of the solution.

[2] = 103Ru-concentration in organs of rats after injection of Rc-amphetamine derivatives; assay type: in vivo; conditions: for 103Ru-concentration, brains / 103Ru-concentration, lungs / 103Ru-concentration, suprarenal glands: 0.5 μmol/kg; for D/H, brains / D/H, lungs / D/H, suprarenal glands: quotient deuterated / non-deuterated
Protocol: The above compounds are intravenously administered in doses of approx. 0.5 μmol/kg to two groups of each 4 rats. The compounds can be represented by the following formula: [drawing 7] After certain periods of time between 0 and 90 minutes after injection test animals are sacrificed and the ^103 Ru-concentration in the brains is determined. The results are graphically recorded in FIG. 1: the ^103 Ru-concentration (C) in the brains i.c. % dose/% body weight (% d/% wt), is plotted against the time (t) in min.
In the same way as described in Example X the effect of deuteration of N-methyl- and N,N-dimethylderivatives of ^103 Ru-labelled ruthenocene-amphetamine is investigated in vivo: groups of 3 or 4 rats as test animals; dose: 0.5 μmol/kg. After 15 or 20 minutes the ^103 Ru-concentration is determined in various organs of the rats, viz. brains, lungs and suprarenal glands, and presented in table B for the compounds tested. As will be apparent from the D/H value, i.e. the quotient of the ^103 Ru concentration of the deuterated compound and that of the non-deuterated compound, in all experiments except one (free amine-lungs) the affinity of the deuterated compounds to the organs is increased compared to the non-deuterated compounds.

[3] = tracer amounts, man; in words; cited from earlier work
[4] = + D2O, 1.0 mMole added to 100 ml of the solution

With `F[B-](F)(F)F.[Fe+3].c1cc[cH-]c1.c1cc[cH-]c1` [(c), [(C5 H5)2 Fe]^+ BF4^-] the T1 [1] was 1.65 s and the T1 [1, 4] was 1.64 s.

In the case of `[103Ru+2].[2H]C([c-]1cccc1)C([2H])(C)N(C([2H])([2H])[2H])C([2H])([2H])[2H].c1cc[cH-]c1` (stereo not drawn) [--N,N-dimethyl D], the “103Ru-concentration, brains” value ([2]; 15 min.) is reported as 3.33 % dosis/% body weight, the “103Ru-concentration, lungs” value ([2]; 15 min.) is reported as 10.5 % dosis/% body weight and the “103Ru-concentration, suprarenal glands” value ([2]; 15 min.) is reported as 11.9 % dosis/% body weight. For the same compound, the “D/H, brains” value ([2]; 15 min.) was 1.45, the “D/H, lungs” value ([2]; 15 min.) was 1.32 and the “D/H, suprarenal glands” value ([2]; 15 min.) was 1.57.

For `[103Ru+2].[2H]C([c-]1cccc1)C([2H])(C)NC([2H])([2H])[2H].c1cc[cH-]c1` (stereo not drawn) [--N-methyl D], the “103Ru-concentration, brains” value ([2]; 15 min.) was 2.56 % dosis/% body weight, the “103Ru-concentration, lungs” value ([2]; 15 min.) was 11.3 % dosis/% body weight and the “103Ru-concentration, suprarenal glands” value ([2]; 15 min.) was 8.3 % dosis/% body weight. The “D/H, brains” value ([2]; 15 min.) was 1.12, the “D/H, lungs” value ([2]; 15 min.) was 1.26 and the “D/H, suprarenal glands” value ([2]; 15 min.) was 1.77.

With `[2H]C([c-]1cccc1)C([2H])(C)N.[Ru+2].c1cc[cH-]c1` (stereo not drawn) [--NH2 D, ^103 Ru-1-ruthenocenyl-2-aminopropane-1,2-d2] the “103Ru-concentration, brains” value ([2]; 20 min.) was 2.56 % dosis/% body weight, the “103Ru-concentration, lungs” value ([2]; 20 min.) was 10.5 % dosis/% body weight and the “103Ru-concentration, suprarenal glands” value ([2]; 20 min.) was 6.2 % dosis/% body weight. The “D/H, brains” value ([2]; 20 min.) was 1.31, the “D/H, lungs” value ([2]; 20 min.) was 0.85 and the “D/H, suprarenal glands” value ([2]; 20 min.) was 1.29. For the same compound, the “D/H, lungs” value ([2]; 20 min., listed as free amine) was “decreased value”.

For `[2H]O[2H]` [D2 O, deuterium oxide], the “effect of D2O on relaxation time” value ([1]; in words, not bound to the complex) was “does not change the relaxation time significantly”.

In the case of `[2H]C([2H])([2H])CC(=O)C(CC(C)N(C)C)(c1ccccc1)c1ccccc1` (stereo not drawn) [methadone-d3], the “metabolic behaviour compared with the unmodified drug” value [3] is listed as “substantially identical metabolic behaviour”.

Compound [(C5 D5)2 Fe]^+ BF4^- [(d)] has a T1 [1] of 1.04 s.

For [(CH3 -C5 D4)2 Fe]^+ BF4^- [(b)], the T1 [1] was 1.23 s.

In the case of [(CH3 -C5 H4)2 Fe]^+ BF4^- [(a)], the T1 [1] is reported as 1.62 s and the T1 [1, 4] is reported as 1.60 s.
